Patent US20220152188A1, “TLR4-TLR7 LIGAND FORMULATIONS AS VACCINE ADJUVANTS” (The Regents of the University of California, priority 2019, published 2022)
Entries after “also recorded” stand apart in the source; their conditions may differ.

Legend:
murine primary cells = test: In vitro immunoactivity / agonistic potency in murine cells; type: cell-based, mouse
[1] = system: THP-1 cells and human primary cells; test: In vitro immunoactivity / agonistic potency in human cells; type: cell-based; settings: THP-1 and human primary cells
[2] = system: inactivated Influenza A virus [A/California/04/2009 (H1N1) pdm09]; test: Antigen-specific antibody production in mice immunized with IIAV plus adjuvant (ELISA); type: in vivo, BALB/c mice; settings: for total IgG levels: liposomal formulation
TLR4 = TLR4 (Homo sapiens, UniProt O00206+Q9Y6Y9); type: cell-based
TLR4, sequence (O00206 24-839): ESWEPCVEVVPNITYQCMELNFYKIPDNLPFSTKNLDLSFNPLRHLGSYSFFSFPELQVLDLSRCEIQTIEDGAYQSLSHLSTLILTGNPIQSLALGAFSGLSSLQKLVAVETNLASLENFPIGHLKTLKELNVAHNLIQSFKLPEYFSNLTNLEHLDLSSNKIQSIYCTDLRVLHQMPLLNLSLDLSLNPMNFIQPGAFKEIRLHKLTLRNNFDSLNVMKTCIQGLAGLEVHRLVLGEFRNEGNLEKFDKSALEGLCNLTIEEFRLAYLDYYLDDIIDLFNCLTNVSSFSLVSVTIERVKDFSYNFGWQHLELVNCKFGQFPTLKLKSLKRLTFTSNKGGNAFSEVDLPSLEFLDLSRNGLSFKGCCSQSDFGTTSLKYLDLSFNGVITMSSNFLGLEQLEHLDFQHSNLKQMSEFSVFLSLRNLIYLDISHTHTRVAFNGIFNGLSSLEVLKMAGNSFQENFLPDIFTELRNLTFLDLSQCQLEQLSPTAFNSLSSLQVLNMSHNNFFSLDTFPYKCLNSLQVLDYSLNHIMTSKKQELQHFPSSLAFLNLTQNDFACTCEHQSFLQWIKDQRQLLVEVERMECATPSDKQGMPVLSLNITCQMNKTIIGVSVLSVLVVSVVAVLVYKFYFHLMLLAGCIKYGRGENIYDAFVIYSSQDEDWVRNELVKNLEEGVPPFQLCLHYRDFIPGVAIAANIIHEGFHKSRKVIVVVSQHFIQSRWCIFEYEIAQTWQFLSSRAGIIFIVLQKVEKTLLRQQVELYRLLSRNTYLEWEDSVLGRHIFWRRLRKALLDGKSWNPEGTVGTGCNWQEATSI
TLR4, sequence (Q9Y6Y9 17-160): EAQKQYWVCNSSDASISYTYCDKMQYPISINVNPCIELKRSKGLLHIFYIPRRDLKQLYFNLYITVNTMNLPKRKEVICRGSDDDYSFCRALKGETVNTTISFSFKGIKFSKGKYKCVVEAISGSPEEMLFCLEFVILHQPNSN

mouse TLR4 = mouse TLR4 (Mus musculus, UniProt Q9JHF9+Q9QUK6); type: cell-based
mouse TLR4, sequence (Q9QUK6 26-835): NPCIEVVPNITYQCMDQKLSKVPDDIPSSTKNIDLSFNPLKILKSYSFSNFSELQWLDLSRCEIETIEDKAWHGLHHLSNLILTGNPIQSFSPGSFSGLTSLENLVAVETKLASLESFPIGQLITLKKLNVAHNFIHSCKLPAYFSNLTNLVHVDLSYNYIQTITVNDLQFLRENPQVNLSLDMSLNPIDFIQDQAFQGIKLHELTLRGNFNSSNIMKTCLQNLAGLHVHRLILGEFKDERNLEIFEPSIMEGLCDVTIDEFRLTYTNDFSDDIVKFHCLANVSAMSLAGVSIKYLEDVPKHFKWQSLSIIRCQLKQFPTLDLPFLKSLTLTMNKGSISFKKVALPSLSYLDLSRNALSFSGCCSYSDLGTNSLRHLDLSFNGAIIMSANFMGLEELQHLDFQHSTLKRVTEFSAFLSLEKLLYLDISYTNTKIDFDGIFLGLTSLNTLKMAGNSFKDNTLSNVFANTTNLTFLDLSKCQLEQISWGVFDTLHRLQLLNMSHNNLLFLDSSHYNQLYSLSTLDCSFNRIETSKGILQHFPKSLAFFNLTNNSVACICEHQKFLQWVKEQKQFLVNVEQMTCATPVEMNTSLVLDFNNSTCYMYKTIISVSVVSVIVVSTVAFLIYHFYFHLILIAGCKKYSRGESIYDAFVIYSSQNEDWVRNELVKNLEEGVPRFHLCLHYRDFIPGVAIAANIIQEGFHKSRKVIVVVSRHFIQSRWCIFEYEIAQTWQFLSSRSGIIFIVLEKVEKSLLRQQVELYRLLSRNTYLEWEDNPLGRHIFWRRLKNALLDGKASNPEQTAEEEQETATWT
mouse TLR4, sequence (Q9JHF9 19-160): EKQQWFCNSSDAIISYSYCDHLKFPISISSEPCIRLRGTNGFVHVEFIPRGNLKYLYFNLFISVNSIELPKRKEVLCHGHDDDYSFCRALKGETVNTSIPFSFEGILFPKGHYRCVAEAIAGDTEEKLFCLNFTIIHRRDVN

IGH genes, TCRα and TCRβ = test: NGS assay for BCR and TCR repertoire of inguinal lymph nodes; type: in vivo, BALB/c mice; settings: day 28
ovalbumin = test: In vivo vaccination study with model antigen ovalbumin; settings: ovalbumin as antigen
influenza virus = test: Immunization with low dose recombinant hemagglutinin (rHA) and lethal virus challenge; type: in vivo, mice; settings: rHA 0.2 μg/injection
Protocol: To assess profile of protective immune responses against influenza virus infection induced by TLR4/TLR7 agonist-combined adjuvant, mice were immunized with low dose (0.2 μg/injection) recombinant hemagglutinin (rHA) and humoral responses and protection against lethal virus challenge (FIGS. 34A-2D).

[3] = TLR4 agonist combined with 1V270, DMSO-water formulation, sera day 28
[4] = single adjuvant, DMSO formulation, i.m. days 0 and 21, sera day 28
[5] = single adjuvant, DMSO formulation, sera day 28

Row | Structure (SMILES) | immunoactivity / agonistic potency in murine cells (murine primary cells) | immunoactivity / agonistic potency in human cells [1] | anti-HA and anti-NA IgG2a [2, 3] | anti-HA and anti-NA IgG1 [2, 4] | EC50 in human TLR4 reporter cells in comparison with EC50 of 1Z105 (TLR4) | EC50 in murine TLR4 reporter cells in comparison with EC50 of 1Z105 (mouse TLR4) | anti-HA and anti-NA IgG1 [2, 3] | total IgG levels ([2]; sera day 28) | anti-HA and anti-NA IgG1 ([2]; single adjuvant, DMSO formulation, i.m. days 0 and 21, sera day 28, listed as 2B182c) | anti-NA IgG2a [2, 5] | antigen specific IgM [2, 5] | anti-NA IgG2a ([2]; single adjuvant, DMSO formulation, sera day 28, listed as 2B182c) | TCR clonality (TCRα and TCRβ) (IGH genes, TCRα and TCRβ) | serum IgG1 levels (ovalbumin) | antigen-specific IgG2a (ovalbumin; with 1V270) | IgG2a:IgG1 ratio (Th1/Th2 immune balance) ([2]; DMSO-water formulation, individual animals) | anti-HA IgG2a [2, 5] | Th1/Th2 bias of immune response (influenza virus)
1 | Cn1c2ccccc2c2nc(SCC(=O)NC3CCCCC3)n(-c3ccccc3)c(=O)c21 [Compound 1Z105] | good immunoactivity in murine cells | devoid of significant activity in human cells | failed in most cases; also recorded: failed to enhance IgG2a production induced by 1V270 | significantly higher levels of IgG1 against HA and NA |  |  |  |  |  |  |  |  |  |  |  |  |  | 
2 | Cn1c2ccc(-c3ccco3)cc2c2nc(SCC(=O)NC3CCCCC3)n(-c3ccccc3)c(=O)c21 [Compound 2B182C] | higher agonistic potency than 1Z105 | higher agonistic potency than 1Z105 | increased the levels of anti HA- and anti NA-Abs | significantly higher levels of IgG1 against HA and NA; also recorded: significantly increased IgG1 antibody against both HA and NA | 870 fold | 5.8 fold | significantly higher IgG1 compared to 1Z105 | comparable | higher level of antigen specific IgG1 | enhanced anti-NA Abs; also recorded: enhanced anti-NA specific IgG2a | only slightly increased | higher level of antigen specific IgG1 and anti-NA IgG2a | increased | induced higher serum IgG1 levels | additively enhance the release of antigen-specific IgG2a induced by 1V270 |  |  | 
3 | CCCCCCCCC=CCCCCCCCC(=O)OCC(COP(=O)(O)OCCNC(=O)c1ccc(Cn2c(=O)[nH]c3c(N)nc(OCCOC)nc32)cc1)OC(=O)CCCCCCCC=CCCCCCCCC (centres unmarked) [Compound 1V270] |  |  |  |  |  |  |  | comparable |  |  |  |  |  |  |  | significantly shifted the Th2-biased immune responses by 1Z105 or 2B182C | significantly increased anti-HA; also recorded: induced only anti-HA IgG2a production | induced Th1 biased immune responses
